Laboratory results published in patent publication US20220257604A1, “COMPOSITIONS AND METHODS FOR […] INFECTIONS BY REGULATING GLUCOSYLCERAMIDES” (priority 2019, published 2022).

Legend:
[1] = test system: A549 cells; assay type: cell-based, human; conditions: 40 minutes at 37° C., compared with GBA KO cells
[2] = test system: A549 cells; assay type: cell-based, human; conditions: WT A549 cells pretreated with nocodazole; EGF-555 100 ng/mL; 40 minutes at 37° C.; compared with GBA KO cells

## COC(=O)Nc1nc2ccc(C(=O)c3cccs3)cc2[nH]1 [nocodazole]
[1]
  colocalization of influenza with Lamp1 (Manders coefficient): not as strongly as in WT cells treated with nocodazole
[2]
  colocalization of EGF with Lamp1 (Manders coefficient): not as severe as seen in WT cells treated with nocodazole
